The target in assay [1] is T1, KDM4A (Homo sapiens, UniProt O75164).
T1 construct: KDM4A 1-359 E.coli; Hexa-His (N); made in house; host or cells: E. coli
T1 sequence (O75164 1-359): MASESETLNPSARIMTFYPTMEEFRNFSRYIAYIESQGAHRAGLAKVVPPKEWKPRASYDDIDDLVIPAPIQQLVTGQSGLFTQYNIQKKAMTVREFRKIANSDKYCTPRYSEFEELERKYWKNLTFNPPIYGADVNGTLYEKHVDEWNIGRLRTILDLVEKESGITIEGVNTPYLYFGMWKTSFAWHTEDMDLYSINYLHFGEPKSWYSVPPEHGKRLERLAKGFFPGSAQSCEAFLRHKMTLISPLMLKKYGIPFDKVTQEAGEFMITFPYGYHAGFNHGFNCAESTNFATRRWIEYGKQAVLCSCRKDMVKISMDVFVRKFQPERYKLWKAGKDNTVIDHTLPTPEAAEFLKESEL
The experiment in a line: AlphaScreen demethylase activity assay, KDM4A. The format is biochemical. As to conditions: ratio of IC50 values. The protocol: IC50 values for KDM2–6 were measured using an AlphaScreen assay as described. The appropriate KDM (5 μl) was pre-incubated with an inhibitor (0.1 μl in DMSO) or DMSO for 15 min before the addition of 5 μl mixture of biotinylated peptide substrates, 2OG, ferrous ammonium sulfate (1–10 μM final) and ascorbate (100 μM final) to initiate the demethylation reaction. The reaction was quenched with 5 μl of 30 mM EDTA at predetermined reaction times for each enzyme (initial rate). Demethylated product was detected by addition of 5 μl of AlphaScreen donor and acceptor beads (AlphaScreen General IgG Detection Kit, 0.02 mg ml^−1 final each) pre-incubated with antibody. The plates were read after 1 h incubation in a BMG Labtech Pherastar FS plate reader. Data were normalized to a no enzyme control and IC50 values were calculated using nonlinear regression curve fits using GraphPad Prism. Assay buffer (50 mM HEPES pH 7.5, BSA (0.1% w/v) and Tween-20 (0.01% v/v)) was used throughout, except for dilution of stock ferrous ammonium sulfate solutions where water was used. The enzyme, substrate and antibody concentrations used are described in Supplementary Table 3. A fluorescence-based LSD1 inhibitor screening assay kit (Cayman, 700120) was used for KDM1/LSD1 assay. Assays for prolyl hydroxylase domain 2 and factor inhibiting HIF using matrix-assisted laser desorption/ionization–time of flight MS were performed as previously described. Prism 5.0 (GraphPad) was used to generate and to fit dose–response curves. IC50 values were determined by plotting percentage inhibition versus compound concentration relative to positive (vehicle) and negative (no enzyme) controls, using normalized dose–response (variable slope) fit. The reported values are the mean of multiple experiments (n≥3). The formaldehyde dehydrogenase coupled KDM assay was used to determine the mode of inhibition, using 0.5 μM His-KDM4A1–359. Prism 5.0 (GraphPad) was used to fit in mix-mode inhibition, to determine the kinetic parameters. Binding constants for CPs and H3(1–15)K9me3 were measured using biolayer interferometry (OctetRed 384, ForteBio) in buffer (50 mM HEPES (pH 7.5), 150 mM NaCl, 10 μM ammonium iron(II) sulphate). His-KDM4A1–359-Bio (70 nM) was immobilized onto super streptavidin biosensor and subjected to different peptide concentrations in buffer. Data analysis was performed using ForteBio Data Aalysis (v6.4).
Construct Expression [E] / nM [2OG] / µM [Fe(II)] / µM Peptide / nM Peptide sequence Antibody Source […]
Supplementary Table 3. AlphaScreen assay parameters for 2OG oxygenases used for this study. The table was dapted from 10. Assays were performed at 2OG concentration near the 2OG Km values determined experimentally.11 All enzymes were expressed and purified as described.10-12
On the technique in general: Alpha assays give light when donor and acceptor beads are brought close together.

The target in assay [2] is T2, FLAG-KDM4E (Homo sapiens, UniProt B2RXH2).
T2 construct: expressed in transfected cells; host or cells: U2OS
T2 sequence (B2RXH2 1-506): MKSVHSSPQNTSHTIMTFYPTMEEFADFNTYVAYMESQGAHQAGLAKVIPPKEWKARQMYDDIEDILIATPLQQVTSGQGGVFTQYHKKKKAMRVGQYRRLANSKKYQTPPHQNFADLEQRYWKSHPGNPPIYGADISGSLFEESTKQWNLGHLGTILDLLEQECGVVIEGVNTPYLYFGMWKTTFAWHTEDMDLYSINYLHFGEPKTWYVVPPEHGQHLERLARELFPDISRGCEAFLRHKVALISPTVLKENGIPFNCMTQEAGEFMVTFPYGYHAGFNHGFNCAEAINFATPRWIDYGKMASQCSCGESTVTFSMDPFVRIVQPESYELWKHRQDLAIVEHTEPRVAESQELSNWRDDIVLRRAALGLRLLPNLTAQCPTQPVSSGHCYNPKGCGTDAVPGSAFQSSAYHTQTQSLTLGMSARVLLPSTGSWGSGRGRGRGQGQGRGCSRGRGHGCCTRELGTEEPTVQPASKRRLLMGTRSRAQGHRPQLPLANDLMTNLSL
The experiment in a line: CETSA, FLAG-KDM4E in U2OS cells. It is filed as cell-based. The conditions noted are these: 0.5 µM.
Method: For CETSA melting curve experiments, 80% confluent U2OS cells in a 75 cm^2 flask were transfected with a plasmid encoding full-length Flag-tagged KDM4A1–1,064 (ref. [15]) or KDM4E1–506 (ref. [20]) using Lipofectamine 2000 (Thermo Scientific) and incubated for 4 h. The cells were washed with PBS buffer and media replaced with fresh DMEM with 10% FBS, supplemented with cyclic peptides in DMSO (0.1% DMSO final). Cell dosing was carried out for 20 h at 37 °C. Control cells were dosed only with DMSO. The cells were trypsinized and washed thrice with PBS, by centrifugation (300 g, 3 min, 4 °C). Cells were re-suspended in PBS supplemented with Complete Protease inhibitor cocktail (Sigma) and divided into 8–10 aliquots (100 μl) containing equal cell numbers in PCR tubes. For ITDRF CETSA experiments, approximately 6 × 10^6 cells were seeded evenly into nine 25 cm^2 flask and adhered before transfection. After 4 h of incubation, the cells were washed with PBS buffer and the media replaced with fresh DMEM with 10% FBS supplemented with cyclic peptides at a final concentration between 0 and 4,000 nM (0.1% DMSO final). Cells were trypsinized and washed thrice with PBS using centrifugation (300 g, 3 min, 4 °C). Cells were re-suspended in PBS supplemented with protease inhibitor cocktail (Sigma), aliquots (100 μl) containing equal cell numbers in PCR tubes were prepared. […] For ITDRF, tubes were incubated at approximately the Tm of the proteins of interest as determined by CETSA melting curve experiments, for example, 55 °C (Tm for actin) for 3 min, followed by room temperature for 3 min. […]
The samples (supernatant) were run on SDS–PAGE (NuPage Novex Bis-Tris 4–12% polyacrylamide gels with NuPAGE MES SDS running buffer (Thermo Scientific)) and transferred onto nitrocellulose membranes using either the iBlot blotting system. FLAG-KDM4A levels were determined by immunoblotting using a monoclonal mouse anti-FLAG primary antibody (F1804, Sigma), at a dilution of 1: 1,000 in PBS-T buffer containing Seablock Reagent Salmon Plasma (2% v/v, Calbiochem). […]

In assay [3] the target is T3, His-KDM4A1-359-Bio (Homo sapiens, UniProt O75164).
T3 construct: KDM4A protein (residues 1-359) was cloned into the pNIC-Bio3 plasmid, which incorporates a C-terminal AviTag; made in house; host or cells: E. coli BL21(DE3)Rosetta co-transfected with pCDF-BirA
T3 sequence (O75164 1-359): T1 sequence (O75164 1-359)
The experiment in a line: Biolayer interferometry binding to KDM4A. In general terms: Biolayer interferometry detects binding as a change in optical thickness at a sensor tip.
Method: The formaldehyde dehydrogenase coupled KDM assay was used to determine the mode of inhibition[34], using 0.5 μM His-KDM4A1–359. Prism 5.0 (GraphPad) was used to fit in mix-mode inhibition, to determine the kinetic parameters. Binding constants for CPs and H3(1–15)K9me3 were measured using biolayer interferometry (OctetRed 384, ForteBio) in buffer (50 mM HEPES (pH 7.5), 150 mM NaCl, 10 μM ammonium iron(II) sulphate). His-KDM4A1–359-Bio (70 nM) was immobilized onto super streptavidin biosensor and subjected to different peptide concentrations in buffer. Data analysis was performed using ForteBio Data Aalysis (v6.4).
KDM4A1-359 was immobilized and analysed for binding to peptides at different concentrations.
The concentration of KDM4A in the assay mixture was 0.5 µM.

“Also recorded” adds a separate entry of the source.

On to DYVYNTRSGWRWYTC [CP2], for which, in assay [1], the “Intra-subfamily selectivity KDM4A-C over KDM4D-E” value is given as more than 100 fold; the “Selectivity by IC50 for KDM4 over other JmjC-demethylase families, PHD2, FIH and KDM1A” value is reported as more than 160 fold. Moreover, the “CETSA stabilization / Tm shift of FLAG-KDM4E” value in assay [2] is “No significant changes in the Tm shift; also recorded: not stabilized”. Besides, in assay [3], the “KDM4A Binding kdiss” value worked out at 0.00407 s⁻¹ and the “KDM4A Binding kon” value stood at 137000 M⁻¹ s⁻¹.
